These results are taken from patent publication US11633459B2, “GIP derivatives and uses thereof” (priority 2018, dated 2023).

What is called half-life is the time in which the quantity being followed falls by half.

*1 amine or outer side, *2 acyl side, *3 side chain or, on linkers, in order; H or OH if unused. Where a SMILES comes first, the peptide text is derived from it. Side-chain parts run from the residue outwards. [ ]: non-standard residue; d: D form. The star is where a group is joined. X1 = O=C(O)CCCCCCCCCCCCCCCCCCC(=O)NCC1CCC(C(=O)*)CC1; γGlu = O=C(O)[C@H](CCC(=O)[*:2])N[*:1]; Nle = CCCC[C@H](N)C(=O)O; Aib = CC(C)(N)C(=O)O

This data set is described as follows: Pharmacokinetic study in minipigs, terminal half-life after i.v. administration. To be noted: female, Göttingen, minipig, plasma, iv, 5 nmol/kg.
Method: Pharmacokinetic Study in Minipigs
The purpose of this study is to determine the half-life in vivo of the derivatives of the present invention after i.v. administration to minipigs, i.e. the prolongation of their time in the body and thereby their time of action. This is done in a pharmacokinetic (PK) study, where the terminal half-life of the derivative in question is determined. By terminal half-life is generally meant the period of time it takes to halve a certain plasma concentration, measured after the initial distribution phase.
Female Göttingen minipigs were obtained from Ellegaard Göttingen Minipigs (Dalmose, Denmark) approximately 7-14 months of age and weighing from approximately 16-35 kg were used in the studies. The minipigs were housed individually and fed restrictedly once daily with SDS minipig diet (Special Diets Services, Essex, UK).
After at 3 weeks of acclimatisation two permanent central venous catheters were implanted in vena cava caudalis in each animal. The animals were allowed 1 week recovery after the surgery, and were then used for repeated pharmacokinetic studies with a suitable wash-out period between successive derivative dosing.
Blood samples (for example 0.8 ml) were collected in EDTA buffer (8 mM) and then centrifuged at 4° C. and 1942G for 10 minutes.
Individual plasma concentration-time profiles were analysed by a non-compartmental model in Phoenix WinNonLin ver. […] (Pharsight Inc., Mountain View, Calif., USA), and the resulting terminal half-lives (harmonic mean) determined.
`CCCC[C@H](NC(=O)[C@H](C)NC(=O)[C@@H](NC(=O)[C@H](CO)NC(=O)[C@H](Cc1ccc(O)cc1)NC(=O)[C@H](CC(=O)O)NC(=O)[C@H](CO)NC(=O)[C@@H](NC(=O)[C@H](Cc1ccccc1)NC(=O)[C@@H](NC(=O)CNC(=O)[C@H](CCC(=O)O)NC(=O)[C@H](C)NC(=O)[C@@H](Cc1ccc(O)cc1)NC(C)=O)[C@@H](C)O)[C@@H](C)CC)[C@@H](C)CC)C(=O)N[C@@H](CC(=O)O)C(=O)N[C@@H](CCCCN)C(=O)N[C@H](C(=O)N[C@@H](CCCNC(=N)N)C(=O)N[C@@H](CCC(N)=O)C(=O)N[C@@H](CCC(N)=O)C(=O)N[C@@H](CC(=O)O)C(=O)N[C@@H](Cc1ccccc1)C(=O)N[C@H](C(=O)N[C@@H](CCCCNC(=O)CC[C@H](NC(=O)CC[C@H](NC(=O)CC[C@H](NC(=O)C1CCC(CNC(=O)CCCCCCCCCCCCCCCCCCC(=O)O)CC1)C(=O)O)C(=O)O)C(=O)O)C(=O)N[C@@H](Cc1c[nH]c2ccccc12)C(=O)N[C@@H](CC(C)C)C(=O)N[C@@H](CC(C)C)C(=O)N[C@@H](C)C(=O)N[C@@H](CCC(N)=O)C(=O)N[C@@H](CCCCN)C(=O)NCC(=O)O)C(C)C)[C@@H](C)CC` (stereo partly drawn) [Compound 8, N{1}-acetyl,N{Epsilon-24}-[(4S)-4-carboxy-4-[[(4S)-4-carboxy-4-[[(4S)-4-carboxy-4-[[4-[(19-carboxynonadecanoylamino)methyl]cyclohexanecarbonyl]amino]-butanoyl]amino]butanoyl]amino]butanoyl]-[D-Tyr1,Nle14,Arg18,Lys24]-hGIP(1-31)] had a half-life of 106 h.
The result for `CCCC[C@H](NC(=O)[C@H](C)NC(=O)[C@@H](NC(=O)[C@H](CO)NC(=O)[C@H](Cc1ccc(O)cc1)NC(=O)[C@H](CC(=O)O)NC(=O)[C@H](CO)NC(=O)[C@@H](NC(=O)[C@H](Cc1ccccc1)NC(=O)[C@@H](NC(=O)CNC(=O)[C@H](CCC(=O)O)NC(=O)C(C)(C)NC(=O)[C@@H](N)Cc1ccc(O)cc1)[C@@H](C)O)[C@@H](C)CC)[C@@H](C)CC)C(=O)N[C@@H](CC(=O)O)C(=O)N[C@@H](CCCCN)C(=O)N[C@H](C(=O)N[C@@H](CCCNC(=N)N)C(=O)N[C@@H](CCC(N)=O)C(=O)N[C@@H](CCC(N)=O)C(=O)N[C@@H](CC(=O)O)C(=O)N[C@@H](Cc1ccccc1)C(=O)N[C@H](C(=O)N[C@@H](CCCCNC(=O)CC[C@H](NC(=O)CC[C@H](NC(=O)CC[C@H](NC(=O)C1CCC(CNC(=O)CCCCCCCCCCCCCCCCCCC(=O)O)CC1)C(=O)O)C(=O)O)C(=O)O)C(=O)N[C@@H](Cc1c[nH]c2ccccc12)C(=O)N[C@@H](CC(C)C)C(=O)N[C@@H](CC(C)C)C(=O)N[C@@H](C)C(=O)N[C@@H](CCC(N)=O)C(=O)N[C@@H](CCCCN)C(=O)N1CCC[C@H]1C(N)=O)C(C)C)[C@@H](C)CC` (stereo partly drawn) [Compound 26, N{Epsilon-24}-[(4S)-4-carboxy-4-[[(4S)-4-carboxy-4-[[(4S)-4-carboxy-4-[[4-[(19-carboxynonadecanoylamino)methyl]cyclohexanecarbonyl]amino]butanoyl]amino]-butanoyl]amino]butanoyl]-[Aib2,Nle14,Arg18,Lys24,Pro31]-hGIP(1-31) amide] reads 109 h; that for `CCCC[C@H](NC(=O)[C@H](C)NC(=O)[C@@H](NC(=O)[C@H](CO)NC(=O)[C@H](Cc1ccc(O)cc1)NC(=O)[C@H](CC(=O)O)NC(=O)[C@H](CO)NC(=O)[C@@H](NC(=O)[C@H](Cc1ccccc1)NC(=O)[C@@H](NC(=O)CNC(=O)[C@H](CCC(=O)O)NC(=O)C(C)(C)NC(=O)[C@@H](N)Cc1ccc(O)cc1)[C@@H](C)O)[C@@H](C)CC)[C@@H](C)CC)C(=O)N[C@@H](CC(=O)O)C(=O)N[C@@H](CCCCN)C(=O)N[C@H](C(=O)N[C@@H](Cc1c[nH]cn1)C(=O)N[C@@H](CCC(N)=O)C(=O)N[C@@H](CCC(N)=O)C(=O)N[C@@H](CC(=O)O)C(=O)N[C@@H](Cc1ccccc1)C(=O)N[C@H](C(=O)N[C@@H](CCCCNC(=O)CC[C@H](NC(=O)CC[C@H](NC(=O)CC[C@H](NC(=O)C1CCC(CNC(=O)CCCCCCCCCCCCCCCCCCC(=O)O)CC1)C(=O)O)C(=O)O)C(=O)O)C(=O)N[C@@H](Cc1c[nH]c2ccccc12)C(=O)N[C@@H](CC(C)C)C(=O)N[C@@H](CC(C)C)C(=O)N[C@@H](C)C(=O)N[C@@H](CCC(N)=O)C(=O)N[C@@H](CCCCN)C(=O)N1CCC[C@H]1C(N)=O)C(C)C)[C@@H](C)CC` (stereo partly drawn) [Compound 27, N{Epsilon-24}-[(4S)-4-carboxy-4-[[(4S)-4-carboxy-4-[[(4S)-4-carboxy-4-[[4-[(19-carboxynonadecanoylamino)methyl]cyclohexanecarbonyl]amino]butanoyl]amino]-butanoyl]amino]butanoyl]-[Aib2,Nle14,Lys24,Pro31]-hGIP(1-31) amide] (H-Y[Aib]EGTFISDYSIA[Nle]DKIHQQDFVK([γGlu-γGlu-γGlu-X1])WLLAQKP-NH2), 147 h.
In the case of `CCCC[C@H](NC(=O)[C@H](C)NC(=O)[C@@H](NC(=O)[C@H](CO)NC(=O)[C@H](Cc1ccc(O)cc1)NC(=O)[C@H](CC(=O)O)NC(=O)[C@H](CO)NC(=O)[C@@H](NC(=O)[C@H](Cc1ccccc1)NC(=O)[C@@H](NC(=O)CNC(=O)[C@H](CCC(=O)O)NC(=O)[C@H](C)NC(=O)[C@@H](Cc1ccc(O)cc1)NC(C)=O)[C@@H](C)O)[C@@H](C)CC)[C@@H](C)CC)C(=O)N[C@@H](CC(=O)O)C(=O)N[C@@H](CCCCN)C(=O)N[C@H](C(=O)N[C@@H](CCCNC(=N)N)C(=O)N[C@@H](CCC(N)=O)C(=O)N[C@@H](CCC(N)=O)C(=O)N[C@@H](CC(=O)O)C(=O)N[C@@H](Cc1ccccc1)C(=O)N[C@H](C(=O)N[C@@H](CCCCNC(=O)CC[C@H](NC(=O)CC[C@H](NC(=O)CC[C@H](NC(=O)C1CCC(CNC(=O)CCCCCCCCCCCCCCCCCCC(=O)O)CC1)C(=O)O)C(=O)O)C(=O)O)C(=O)N[C@@H](Cc1c[nH]c2ccccc12)C(=O)N[C@@H](CC(C)C)C(=O)N[C@@H](CC(C)C)C(=O)N[C@@H](C)C(=O)N[C@@H](CCC(N)=O)C(=O)N[C@@H](CCCCN)C(=O)N1CCC[C@H]1C(N)=O)C(C)C)[C@@H](C)CC` (stereo partly drawn) [Compound 28, N{1}-acetyl,N{Epsilon-24}-[(4S)-4-carboxy-4-[[(4S)-4-carboxy-4-[[(4S)-4-carboxy-4-[[4-[(19-carboxynonadecanoylamino)methyl]cyclohexanecarbonyl]amino]butanoyl]-amino]butanoyl]amino]butanoyl]-[D-Tyr1,Nle14,Arg18,Lys24,Pro31]-hGIP(1-31) amide] (Ac-[dY]AEGTFISDYSIA[Nle]DKIRQQDFVK([γGlu-γGlu-γGlu-X1])WLLAQKP-NH2) it was 104 h.
The result for `CCCC[C@H](NC(=O)[C@H](C)NC(=O)[C@@H](NC(=O)[C@H](CO)NC(=O)[C@H](Cc1ccc(O)cc1)NC(=O)[C@H](CC(=O)O)NC(=O)[C@H](CO)NC(=O)[C@@H](NC(=O)[C@H](Cc1ccccc1)NC(=O)[C@@H](NC(=O)CNC(=O)[C@H](CCC(=O)O)NC(=O)C(C)(C)NC(=O)[C@@H](Cc1ccc(O)cc1)NC(C)=O)[C@@H](C)O)[C@@H](C)CC)[C@@H](C)CC)C(=O)N[C@@H](CC(=O)O)C(=O)N[C@@H](CCCCN)C(=O)N[C@H](C(=O)N[C@@H](Cc1c[nH]cn1)C(=O)N[C@@H](CCC(N)=O)C(=O)N[C@@H](CCC(N)=O)C(=O)N[C@@H](CC(=O)O)C(=O)N[C@@H](Cc1ccccc1)C(=O)N[C@H](C(=O)N[C@@H](CCCCNC(=O)CC[C@H](NC(=O)CC[C@H](NC(=O)CC[C@H](NC(=O)C1CCC(CNC(=O)CCCCCCCCCCCCCCCCCCC(=O)O)CC1)C(=O)O)C(=O)O)C(=O)O)C(=O)N[C@@H](Cc1c[nH]c2ccccc12)C(=O)N[C@@H](CC(C)C)C(=O)N[C@@H](CC(C)C)C(=O)N[C@@H](C)C(=O)N[C@@H](CCC(N)=O)C(=O)N[C@@H](CCCCN)C(=O)N1CCC[C@H]1C(N)=O)C(C)C)[C@@H](C)CC` (stereo partly drawn) [Compound 32, N{1}-acetyl,N{Epsilon-24}-[(4S)-4-carboxy-4-[[(4S)-4-carboxy-4-[[(4S)-4-carboxy-4-[[4-[(19-carboxynonadecanoylamino)methyl]cyclohexanecarbonyl]amino]butanoyl]-amino]butanoyl]amino]butanoyl]-[D-Tyr1,Aib2, Nle14,Lys24,Pro31]-hGIP(1-31) amide] (Ac-[dY][Aib]EGTFISDYSIA[Nle]DKIHQQDFVK([γGlu-γGlu-γGlu-X1])WLLAQKP-NH2) reads 121 h.
